The values below come from patent US7129392B2, “Materials and methods for increasing isoprenoid production in cells” (priority 2000, dated 2006).

The subject of one data set is E. coli TOP10 F′. Put plainly: Growth of E. coli control cells on medium containing fosmidomycin. Type of data set: cell-based. Particulars: TOP10 F′ transformed with parent vectors; LB or LB/IPTG with fosmidomycin 20 μg/ml. The procedure:
Single colonies of TOP10 F′/pHKO2 (designated strain HK6), TOP10 F′/pHKO3 (designated strain HK7), and TOP10 F′/pHKO9 (designated strain HK8), are used to individually inoculate 4 ml LB/amp cultures and grown overnight at 30° C., 225 rpm. The HK6 and HK7 cultures are serially diluted 10,000 to 100,000-fold and plated on LB containing fosmidomycin (20 μg/ml).

The next data set deals with DXP reductoisomerase (Escherichia coli, UniProt P45568). Particulars: Kuzuyama et al., 1998; cited from earlier work.
The conditions of data set [1]: especially in combination with other herbicides; Kamuro et al.; cited from earlier work.
Data set [2] concerns Nicotiana tabacum var. ‘Xanthi NC’ leaf sections. Put plainly: Toxicity of fosmidomycin to tobacco grown on medium. The following applies: after three weeks of growth on medium.

DXP reductoisomerase, sequence (P45568 whole entry): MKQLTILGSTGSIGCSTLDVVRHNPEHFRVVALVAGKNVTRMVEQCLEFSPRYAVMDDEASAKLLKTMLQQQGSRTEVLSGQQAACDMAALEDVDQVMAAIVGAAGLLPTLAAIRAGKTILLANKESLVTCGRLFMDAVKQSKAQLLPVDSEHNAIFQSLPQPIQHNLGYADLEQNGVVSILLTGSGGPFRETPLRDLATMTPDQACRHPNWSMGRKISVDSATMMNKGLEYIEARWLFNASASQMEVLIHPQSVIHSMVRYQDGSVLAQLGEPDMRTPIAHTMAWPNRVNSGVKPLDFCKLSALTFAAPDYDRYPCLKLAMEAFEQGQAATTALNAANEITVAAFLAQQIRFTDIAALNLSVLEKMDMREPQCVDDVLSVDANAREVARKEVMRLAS

With `O=CN(O)CCCP(=O)(O)O` [fosmidomycin], the “growth of E. coli control cells on medium containing fosmidomycin” value in the data set on E. coli TOP10 F′ is “unable to grow”. The “inhibition of the enzyme DXP reductoisomerase” value on DXP reductoisomerase was “specific inhibitor”. Moreover, in data set [1], the herbicidal activity entry is listed as “significant herbicidal activity”. For the same molecule, in data set [2], the “fosmidomycin concentration at which toxicity is evident in tobacco” value is “at least 500 micromolar”.
